Inconclusive results and toxic doses are left out.
System: L1210 leukemia ip in BDF1 mice, survival T/C
Experiment: NCI In Vivo Anticancer Drug Screen. Data for tumor model L1210 Leukemia (intraperitoneal) in B6D2F1 (BDF1) mice
Conditions: higher = longer survival
In short: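 Tumor cells were implanted, animals were treated, and survival was followed. The result divides the treated measurement by the vehicle-control measurement.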

[1] = endpoint: mean survival time, dose: 400.0 mg/kg/injection, schedule: Q01DX001 (ip), vehicle: saline
[2] = endpoint: mean survival time, dose: 50.0 mg/kg/injection, schedule: Q01DX009 (ip), vehicle: Klucel (hydroxypropylcellulose) (HPC)
[3] = endpoint: mean survival time, dose: 100.0 mg/kg/injection, schedule: Q01DX009 (ip), vehicle: Klucel (hydroxypropylcellulose) (HPC)
[4] = endpoint: mean survival time, dose: 100.0 mg/kg/injection, schedule: Q04DX003 (ip), vehicle: Klucel (hydroxypropylcellulose) (HPC)
[5] = endpoint: mean survival time, dose: 200.0 mg/kg/injection, schedule: Q04DX003 (ip), vehicle: Klucel (hydroxypropylcellulose) (HPC)
[6] = endpoint: mean survival time, dose: 200.0 mg/kg/injection, schedule: Q04DX003 (ip), vehicle: other

CC1CN1C(=O)c1cc(C(=O)N2CC2C)cc(C(=O)N2CC2C)c1 (stereo not given)
T/C (endpoint: mean survival time, dose: 15.0 mg/kg/injection, schedule: Q01DX001 (ip), vehicle: saline): 102 % of control | T/C (endpoint: mean survival time, dose: 15.0 mg/kg/injection, schedule: Q04DX003 (ip), vehicle: saline): 98 % of control | T/C (endpoint: mean survival time, dose: 30.0 mg/kg/injection, schedule: Q01DX001 (ip), vehicle: saline): 105 % of control | T/C (endpoint: mean survival time, dose: 30.0 mg/kg/injection, schedule: Q04DX003 (ip), vehicle: saline): 98 % of control | T/C (endpoint: mean survival time, dose: 60.0 mg/kg/injection, schedule: Q01DX001 (ip), vehicle: saline): 102 % of control | T/C (endpoint: mean survival time, dose: 60.0 mg/kg/injection, schedule: Q04DX003 (ip), vehicle: saline): 102 % of control

O=C(/C=C\c1ccc(/C=C\C(=O)c2ccccc2O)cc1)c1ccccc1O
T/C (endpoint: mean survival time, dose: 50.0 mg/kg/injection, schedule: Q01DX001 (ip), vehicle: saline): 97 % of control | T/C (endpoint: mean survival time, dose: 100.0 mg/kg/injection, schedule: Q01DX001 (ip), vehicle: saline): 97 % of control | T/C (endpoint: mean survival time, dose: 200.0 mg/kg/injection, schedule: Q01DX001 (ip), vehicle: saline): 97 % of control | T/C [1]: 103 % of control

O=C(O)c1c(O)c(-c2ccccc2)nc2ccccc12
T/C (endpoint: mean survival time, dose: 25.0 mg/kg/injection, schedule: Q01DX001 (ip), vehicle: Klucel (hydroxypropylcellulose) (HPC)): 90 % of control | T/C (endpoint: mean survival time, dose: 50.0 mg/kg/injection, schedule: Q01DX001 (ip), vehicle: Klucel (hydroxypropylcellulose) (HPC)): 102 % of control | T/C [2]: 101 % of control | T/C (endpoint: mean survival time, dose: 100.0 mg/kg/injection, schedule: Q01DX001 (ip), vehicle: Klucel (hydroxypropylcellulose) (HPC)): 86 % of control | T/C [3]: 100 % of control | T/C [4]: 98 % of control | T/C (endpoint: mean survival time, dose: 200.0 mg/kg/injection, schedule: Q01DX009 (ip), vehicle: Klucel (hydroxypropylcellulose) (HPC)): 103 % of control | T/C [5]: 100 % of control

COC(=O)C(Cc1ccc(N(CCCl)CCCl)cc1)N=NNc1nc[nH]c1C(N)=O (stereo not given)
T/C (endpoint: mean survival time, dose: 11.0 mg/kg/injection, schedule: Q03HX024 (ip), vehicle: other): 150 % of control | T/C (endpoint: mean survival time, dose: 17.0 mg/kg/injection, schedule: Q03HX024 (ip), vehicle: other): 176 % of control | T/C (endpoint: mean survival time, dose: 25.0 mg/kg/injection, schedule: Q03HX024 (ip), vehicle: other): 157 % of control | T/C (endpoint: mean survival time, dose: 38.0 mg/kg/injection, schedule: Q01DX009 (ip), vehicle: other): 152 % of control | T/C (endpoint: mean survival time, dose: 56.0 mg/kg/injection, schedule: Q01DX009 (ip), vehicle: other): 114 % of control | T/C (endpoint: mean survival time, dose: 88.0 mg/kg/injection, schedule: Q04DX003 (ip), vehicle: other): 166 % of control | T/C (endpoint: mean survival time, dose: 134.0 mg/kg/injection, schedule: Q04DX003 (ip), vehicle: other): 160 % of control | T/C (endpoint: mean survival time, dose: 200.0 mg/kg/injection, schedule: Q01DX001 (ip), vehicle: carboxymethylcellulose (CMC)): 161 % of control | T/C [6]: 103 % of control | T/C (endpoint: mean survival time, dose: 300.0 mg/kg/injection, schedule: Q01DX001 (ip), vehicle: carboxymethylcellulose (CMC)): 181 % of control | T/C (endpoint: mean survival time, dose: 375.0 mg/kg/injection, schedule: Q01DX001 (ip), vehicle: carboxymethylcellulose (CMC)): 151 % of control | T/C (endpoint: median survival time, dose: 12.5 mg/kg/injection, schedule: Q01DX009 (ip), vehicle: steriod suspending solution): 122 % of control | T/C (endpoint: median survival time, dose: 50.0 mg/kg/injection, schedule: Q01DX009 (ip), vehicle: steriod suspending solution): 105 % of control | T/C (endpoint: median survival time, dose: 100.0 mg/kg/injection, schedule: Q01DX009 (ip), vehicle: steriod suspending solution): 88 % of control

O=NN(CC(=O)O)c1cccnc1
T/C (endpoint: mean survival time, dose: 25.0 mg/kg/injection, schedule: Q01DX009 (ip), vehicle: Klucel (hydroxypropylcellulose) (HPC)): 98 % of control | T/C [2]: 101 % of control | T/C [3]: 107 % of control

CCC(Cl)COP(=O)(OCC(Cl)CC)C(c1ccc(Cl)c(Cl)c1)P(=O)(OCC(Cl)CC)OCC(Cl)CC (stereo not given)
T/C [4]: 101 % of control | T/C [5]: 98 % of control | T/C (endpoint: mean survival time, dose: 400.0 mg/kg/injection, schedule: Q04DX003 (ip), vehicle: Klucel (hydroxypropylcellulose) (HPC)): 96 % of control

CN(C)c1ccc(/C=N/NC(=O)c2cccc3ccccc23)c(Cl)c1
T/C [1]: 90 % of control

Cc1ccccc1C(c1ccccc1)C(CC(=O)O)CC(=O)O (stereo not given)
T/C (endpoint: mean survival time, dose: 100.0 mg/kg/injection, schedule: Q01DX009 (ip), vehicle: saline with Tween-80): 96 % of control | T/C (endpoint: mean survival time, dose: 100.0 mg/kg/injection, schedule: Q04DX003 (ip), vehicle: other): 100 % of control | T/C (endpoint: mean survival time, dose: 200.0 mg/kg/injection, schedule: Q01DX009 (ip), vehicle: saline with Tween-80): 95 % of control | T/C [6]: 103 % of control | T/C (endpoint: mean survival time, dose: 400.0 mg/kg/injection, schedule: Q01DX009 (ip), vehicle: saline with Tween-80): 93 % of control | T/C (endpoint: mean survival time, dose: 400.0 mg/kg/injection, schedule: Q04DX003 (ip), vehicle: other): 106 % of control
